Measured values: PubChem BioAssay (NCI)
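96-well plates; 48 h exposure; 5 concentrations. Endpoints by linear interpolation between flanking doses. Not reached: highest tested concentration assigned. GI50: concentration for 50% inhibition of growth. TGI is the concentration that stops growth completely.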

Key:
Assay in all cases: NCI-60 cell line screen, 48 h
[1] = test system: HOP-62 NSCLC
[2] = test system: CAKI-1 renal
[3] = test system: KM12 colon
[4] = test system: NCI/ADR-RES ovarian
[5] = test system: RXF 393 renal
[6] = test system: UACC-257 melanoma
[7] = test system: SR leukemia
[8] = test system: HCC-2998 colon
[9] = test system: HT29 colon
[10] = test system: OVCAR-3 ovarian

SMILES | GI50 [1] | TGI [1] | GI50 [2] | TGI [2] | GI50 [3] | TGI [3] | GI50 [4] | TGI [4] | GI50 [5] | TGI [5] | GI50 [6] | TGI [6] | GI50 [7] | TGI [7] | GI50 [8] | TGI [8] | GI50 [9] | TGI [9] | GI50 [10] | TGI [10]
COc1cc(N2CCN(C(C)C)CC2)ccc1Nc1nc(Nc2cccc(F)c2C(=O)O)c2cc[nH]c2n1 | > 25 µM | > 25 µM | > 25 µM | > 25 µM | > 25 µM | > 25 µM | > 25 µM | > 25 µM | > 25 µM | > 25 µM | > 25 µM | > 25 µM | > 25 µM | > 25 µM | > 25 µM | > 25 µM | > 25 µM | > 25 µM | > 25 µM | > 25 µM
CCCCNC(=O)c1cc(NCc2cc(O)ccc2O)ccc1O | 71.8 µM | > 100 µM | 10.8 µM | 23.8 µM | 14.4 µM | 57.7 µM | 25 µM | > 100 µM | 8.53 µM | 21.4 µM | 16.4 µM | 32.4 µM | 5.35 µM | > 100 µM | 17.6 µM | 35.5 µM | 21.5 µM | 46.8 µM | 4.8 µM | 17.1 µM
Cc1cc(N2CCCC2)nc(NCc2cc(Nc3ccnc4cc(Cl)ccc34)ccc2F)n1 | 1.46 µM | 3.14 µM | 1.38 µM | 2.86 µM | 1.52 µM | 3.01 µM | 1.39 µM | 2.99 µM | 1.43 µM | 2.87 µM | 1.31 µM | 2.66 µM | 0.243 µM |  | 1.13 µM | 2.45 µM | 0.286 µM | 1.23 µM | 1.57 µM | 3.06 µM
O=C1C(=O)c2ccccc2C(O)=C1CCCc1ccc(C2CCCCCC2)cc1 | 1.27 µM | 27.3 µM | 0.432 µM | 26 µM | 0.903 µM | 17.2 µM | 0.702 µM | 11.9 µM | 10.2 µM | 41.7 µM | 0.662 µM | > 23.3 µM | 1.77 µM | > 100 µM | 0.863 µM | 22.7 µM | 4.6 µM | 27.8 µM | 0.781 µM | 16.3 µM
COc1cc(-c2cc(/C=C/C(=O)c3ccc(Cl)c(Cl)c3)[nH]n2)cc(OC)c1OC | 1.72 µM | 7.66 µM | 16.9 µM | > 100 µM | 3.37 µM | > 100 µM | 10.6 µM | > 100 µM | 2.7 µM | 12.8 µM | 16.3 µM | 74 µM | 0.393 µM | 13.5 µM | 9.56 µM | 31.4 µM | 11.5 µM | > 100 µM | 6.99 µM | 37.8 µM
CCCCC(=O)N/N=C/c1c(O)ccc2ccccc12 | 7.95 µM | > 100 µM |  | 2.26 µM | 2.28 µM | > 100 µM | 1.68 µM | > 30.2 µM | 2.01 µM | 15.9 µM | 3 µM | > 24.6 µM | 0.45 µM | 3.57 µM | 3.88 µM | > 100 µM | 27.5 µM | > 100 µM | 0.423 µM | 9.37 µM
C[C@]1(Cn2ccnn2)C(C(=O)O)N2C(=O)CC2S1(=O)=O (stereo partly drawn) | > 100 µM | > 100 µM | > 100 µM | > 100 µM | > 100 µM | > 100 µM | > 100 µM | > 100 µM | > 100 µM | > 100 µM | > 100 µM | > 100 µM | > 100 µM | > 100 µM | > 100 µM | > 100 µM | > 100 µM | > 100 µM | > 100 µM | > 100 µM
COc1ccc2c(Cl)cc(NC(=O)Nc3c(C)cccc3C)nc2c1 | 3.91 µM | 15.3 µM | 5.27 µM | > 100 µM | 35.7 µM | > 100 µM | > 100 µM | > 100 µM | 4.97 µM | 24.8 µM | 20 µM | > 100 µM | 27.5 µM | > 100 µM | > 100 µM | > 100 µM | 33.9 µM | > 100 µM | 23.5 µM | > 100 µM
